Assay results as given in patent US10954269B2, “Anti-inflammatory tripeptides” (Dr. August Wolff Gmbh & Co. KG Arzneimittel, priority 2013, dated 2021).
[ ]: non-standard residue; d: D form. Aib = CC(C)(N)C(=O)O

Tested on: primary murine T-cells
Assay: Cytokine secretion on protein level in activated primary murine T-cells (13-plex FACS / Luminex, supernatant)
Type: cell-based, C57BL/6 mice
Summary of the method: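 T-cells from secondary lymphatic organs of naïve C57BL/6 mice, stimulated with PMA/Ionomycin or IFN-γ; supernatant cytokines measured by 13-plex FACS 48 h and 72 h after stimulation. In another run, PMA/Ionomycin-stimulated cells received compounds at 10^−7, 10^−9 and 10^−11 M, with IFN-γ, IL-17 and IL-10 measured by Luminex.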

[1] = primary murine T-cells stimulated with IFN-γ, substance 10^−9M
[2] = primary murine T-cells stimulated with PBS, substance 10^−9M
[3] = primary murine T-cells stimulated with PMA/Ionomycin, substance 10^−9M
[4] = primary murine T-cells stimulated with IFN-γ, 10^−9M
[5] = primary murine T-cells stimulated with PBS, 10^−9M
[6] = primary murine T-cells stimulated with PMA/Ionomycin, 10^−9M
[7] = primary murine T-cells stimulated with PMA/Ionomycin, 10^−9M, 1:10 dilution of the supernatants

Substance: H-Phe-Pro-[Aib]-OH [Example 13]
- IL-1 cytokine concentration [1]: 82.68 pg/mL
- IL-2 cytokine concentration [1]: 237.05 pg/mL
- IL-4 cytokine concentration [1]: 0 pg/mL
- IL-5 cytokine concentration [1]: 342.32 pg/mL
- IL-6 cytokine concentration [1]: 220.06 pg/mL
- IL-10 cytokine concentration [1]: 968.94 pg/mL
- IL-13 cytokine concentration [1]: 0 pg/mL
- IL-17 cytokine concentration [1]: 26.88 pg/mL
- IL-21 cytokine concentration [1]: 0 pg/mL
- IL-22 cytokine concentration [1]: 334.1 pg/mL
- IL-27 cytokine concentration [1]: 151.6 pg/mL
- TNF-α cytokine concentration [1]: 52.48 pg/mL
- IFN-γ cytokine concentration [2]: 5058.59 pg/mL
- IL-1 cytokine concentration [2]: 64.4 pg/mL
- IL-2 cytokine concentration [2]: 173.84 pg/mL
- IL-4 cytokine concentration [2]: 25.55 pg/mL
- IL-5 cytokine concentration [2]: 401.21 pg/mL
- IL-6 cytokine concentration [2]: 168.6 pg/mL
- IL-10 cytokine concentration [2]: 829.52 pg/mL
- IL-13 cytokine concentration [2]: 0 pg/mL
- IL-17 cytokine concentration [2]: 0 pg/mL
- IL-21 cytokine concentration [2]: 0 pg/mL
- IL-22 cytokine concentration [2]: 0 pg/mL
- IL-27 cytokine concentration [2]: 302.6 pg/mL
- TNF-α cytokine concentration [2]: 62.22 pg/mL
- IFN-γ cytokine concentration [3]: 8109.91 pg/mL
- IL-1 cytokine concentration [3]: 329.99 pg/mL
- IL-2 cytokine concentration [3]: 260.49 pg/mL
- IL-4 cytokine concentration [3]: 135.41 pg/mL
- IL-5 cytokine concentration [3]: 452.71 pg/mL
- IL-6 cytokine concentration [3]: 404.54 pg/mL
- IL-10 cytokine concentration [3]: 1267.4 pg/mL
- IL-13 cytokine concentration [3]: 0 pg/mL
- IL-17 cytokine concentration [3]: 0 pg/mL
- IL-21 cytokine concentration [3]: 432.64 pg/mL
- IL-22 cytokine concentration [3]: 111.64 pg/mL
- IL-27 cytokine concentration [3]: 387.94 pg/mL
- TNF-α cytokine concentration [3]: 69.4 pg/mL

Substance: H-Lys-[dP]-Thr-OH [K(D)PT, reference compound]
- IL-1 cytokine concentration [4]: 26.6 pg/mL
- IL-2 cytokine concentration [4]: 0 pg/mL
- IL-4 cytokine concentration [4]: 0 pg/mL
- IL-5 cytokine concentration [4]: 0 pg/mL
- IL-6 cytokine concentration [4]: 0 pg/mL
- IL-10 cytokine concentration [4]: 0 pg/mL
- IL-13 cytokine concentration [4]: 0 pg/mL
- IL-17 cytokine concentration [4]: 0 pg/mL
- IL-21 cytokine concentration [4]: 0 pg/mL
- IL-22 cytokine concentration [4]: 0 pg/mL
- IL-27 cytokine concentration [4]: 209.12 pg/mL
- TNF-α cytokine concentration [4]: 0 pg/mL
- IL-1 cytokine concentration [1]: 93.77 pg/mL
- IL-2 cytokine concentration [1]: 98.22 pg/mL
- IL-4 cytokine concentration [1]: 85.32 pg/mL
- IL-5 cytokine concentration [1]: 271.81 pg/mL
- IL-6 cytokine concentration [1]: 144.97 pg/mL
- IL-10 cytokine concentration [1]: 1061 pg/mL
- IL-13 cytokine concentration [1]: 0 pg/mL
- IL-17 cytokine concentration [1]: 88.84 pg/mL
- IL-21 cytokine concentration [1]: 0 pg/mL
- IL-22 cytokine concentration [1]: 48.13 pg/mL
- IL-27 cytokine concentration [1]: 0 pg/mL
- TNF-α cytokine concentration [1]: 34.84 pg/mL
- IFN-γ cytokine concentration [5]: 0 pg/mL
- IL-1 cytokine concentration [5]: 0 pg/mL
- IL-2 cytokine concentration [5]: 0 pg/mL
- IL-4 cytokine concentration [5]: 0 pg/mL
- IL-5 cytokine concentration [5]: 0 pg/mL
- IL-6 cytokine concentration [5]: 27.81 pg/mL
- IL-10 cytokine concentration [5]: 64.53 pg/mL
- IL-13 cytokine concentration [5]: 0 pg/mL
- IL-17 cytokine concentration [5]: 16.26 pg/mL
- IL-21 cytokine concentration [5]: 0 pg/mL
- IL-22 cytokine concentration [5]: 0 pg/mL
- IL-27 cytokine concentration [5]: 25.93 pg/mL
- TNF-α cytokine concentration [5]: 0 pg/mL
- IFN-γ cytokine concentration [2]: 0 pg/mL
- IL-1 cytokine concentration [2]: 60.41 pg/mL
- IL-2 cytokine concentration [2]: 124.13 pg/mL
- IL-4 cytokine concentration [2]: 71.69 pg/mL
- IL-5 cytokine concentration [2]: 373.93 pg/mL
- IL-6 cytokine concentration [2]: 124 pg/mL
- IL-10 cytokine concentration [2]: 1039.39 pg/mL
- IL-13 cytokine concentration [2]: 0 pg/mL
- IL-17 cytokine concentration [2]: 0 pg/mL
- IL-21 cytokine concentration [2]: 0 pg/mL
- IL-22 cytokine concentration [2]: 78.32 pg/mL
- IL-27 cytokine concentration [2]: 87.48 pg/mL
- TNF-α cytokine concentration [2]: 77.74 pg/mL
- IL-1 cytokine concentration [6]: 30.27 pg/mL
- IL-4 cytokine concentration [6]: 71.79 pg/mL
- IL-5 cytokine concentration [6]: 280.87 pg/mL
- IL-6 cytokine concentration [6]: 140.97 pg/mL
- IL-10 cytokine concentration [6]: 188.56 pg/mL
- IL-13 cytokine concentration [6]: 4314.15 pg/mL
- IL-17 cytokine concentration [6]: 423.67 pg/mL
- IL-21 cytokine concentration [6]: 0 pg/mL
- IL-22 cytokine concentration [6]: 333.4 pg/mL
- IL-27 cytokine concentration [6]: 99.7 pg/mL
- TNF-α cytokine concentration [6]: 515.54 pg/mL
- IFN-γ* cytokine concentration [7]: 712.81 pg/mL
- IL-2* cytokine concentration [7]: 1288.92 pg/mL
- IFN-γ cytokine concentration [3]: 2117.29 pg/mL
- IL-1 cytokine concentration [3]: 175.59 pg/mL
- IL-2 cytokine concentration [3]: 152.69 pg/mL
- IL-4 cytokine concentration [3]: 72.07 pg/mL
- IL-5 cytokine concentration [3]: 238.08 pg/mL
- IL-6 cytokine concentration [3]: 201.87 pg/mL
- IL-10 cytokine concentration [3]: 1133.29 pg/mL
- IL-13 cytokine concentration [3]: 0 pg/mL
- IL-17 cytokine concentration [3]: 70.93 pg/mL
- IL-21 cytokine concentration [3]: 0 pg/mL
- IL-22 cytokine concentration [3]: 90.3 pg/mL
- IL-27 cytokine concentration [3]: 126.71 pg/mL
- TNF-α cytokine concentration [3]: 49.63 pg/mL
